The values below come from ChEMBL document CHEMBL1129922, “Preparation and antibacterial activity of pyridopyridone analogs: C-1 modifications” (1997).

Type in all cases: functional
In one test the test system is Streptococcus pyogenes. Description: In vitro antibacterial activity against Streptococcus pyogenes 930 organism, activity expressed as minimum inhibitory concentration (MIC).
In a further test the test system is Pseudomonas aeruginosa. Description: In vitro antibacterial activity against Pseudomonas aeruginosa K799/WT organism, activity expressed as minimum inhibitory concentration (MIC).
In test [1] the test system is Staphylococcus aureus. Description: In vitro antibacterial activity against Staphylococcus aureus NCTC 10649M organism expressed as minimum inhibitory concentration (MIC).
A further test deals with Enterococcus faecium. Description: In vitro antibacterial activity against Enterococcus faecium ATCC 8043 organism, activity expressed as minimum inhibitory concentration (MIC).
Test [2] deals with Staphylococcus aureus. Description: In vitro antibacterial activity against Staphylococcus aureus 1775 organism expressed as minimum inhibitory concentration (MIC).
The test system of another test is Escherichia coli. The test can be described thus: In vitro antibacterial activity against Escherichia coli juhl organism, activity expressed as minimum inhibitory concentration (MIC).

Values after ≈ are worked out from the molar mass of the structure shown.

As for `C=Cc1cc(C(=O)O)c(=O)n2cc(F)c(N3CC[C@H](N)C3)c(C)c12`, the MIC in the test on Streptococcus pyogenes is 1.56 µg/mL (≈ 4.71 µM); against Pseudomonas aeruginosa it was 0.78 µg/mL (≈ 2.35 µM); against Staphylococcus aureus [1] it was 0.78 µg/mL (≈ 2.35 µM); in the test with Enterococcus faecium, 1.56 µg/mL (≈ 4.71 µM); against Staphylococcus aureus [2], greater than 100 µg/mL; in the test on Escherichia coli, 0.2 µg/mL (≈ 0.604 µM).

Turning to `Cc1c(N2CC[C@H](N)C2)c(F)cn2c(=O)c(C(=O)O)cc(CC(C)(C)C)c12`, the MIC came to 3.1 µg/mL (≈ 8.26 µM) in the test with Streptococcus pyogenes; 12.5 µg/mL (≈ 33.3 µM) in the test with Pseudomonas aeruginosa; 1.56 µg/mL (≈ 4.16 µM) with Staphylococcus aureus [1]; 6.2 µg/mL (≈ 16.5 µM) with Enterococcus faecium; 50 µg/mL (≈ 133 µM) in the test with Staphylococcus aureus [2].

`Cc1c(N2CC[C@H](N)C2)c(F)cn2c(=O)c(C(=O)O)cc(CC3CC3)c12`: the MIC with Streptococcus pyogenes was found to be 6.2 µg/mL (≈ 17.3 µM); with Pseudomonas aeruginosa, 12.5 µg/mL (≈ 34.8 µM); with Staphylococcus aureus [1] it was 1.56 µg/mL (≈ 4.34 µM); with Enterococcus faecium, 6.2 µg/mL (≈ 17.3 µM); with Staphylococcus aureus [2], 25 µg/mL (≈ 69.6 µM); in the test on Escherichia coli, 0.78 µg/mL (≈ 2.17 µM).

As for `Cc1cc(C(=O)O)c(=O)n2cc(F)c(N3CC[C@H](N)C3)c(C)c12`, the MIC with Streptococcus pyogenes came out at 0.39 µg/mL (≈ 1.22 µM); in the test with Pseudomonas aeruginosa, 3.1 µg/mL (≈ 9.71 µM); against Staphylococcus aureus [1] it was 0.1 µg/mL (≈ 0.313 µM); with Enterococcus faecium it was 0.39 µg/mL (≈ 1.22 µM); against Staphylococcus aureus [2], 12.5 µg/mL (≈ 39.1 µM); with Escherichia coli, 0.05 µg/mL (≈ 0.157 µM).

Regarding `Cc1c(N2CC[C@H](N)C2)c(F)cn2c(=O)c(C(=O)O)cc(C3CCC3)c12`, the MIC with Streptococcus pyogenes was found to be 0.39 µg/mL (≈ 1.09 µM); against Pseudomonas aeruginosa, 3.1 µg/mL (≈ 8.63 µM); against Staphylococcus aureus [1] it was 0.1 µg/mL (≈ 0.278 µM); with Enterococcus faecium it was 0.39 µg/mL (≈ 1.09 µM); against Staphylococcus aureus [2], 12.5 µg/mL (≈ 34.8 µM); against Escherichia coli, 0.05 µg/mL (≈ 0.139 µM).

`COCCc1cc(C(=O)O)c(=O)n2cc(F)c(N3CC[C@H](N)C3)c(C)c12`: the MIC was 100 µg/mL (≈ 275 µM) against Pseudomonas aeruginosa; 50 µg/mL (≈ 138 µM) in the test with Staphylococcus aureus [1]; greater than 100 µg/mL with Enterococcus faecium; greater than 100 µg/mL with Staphylococcus aureus [2]; 12.5 µg/mL (≈ 34.4 µM) in the test on Escherichia coli.

Take `CCC(C)c1cc(C(=O)O)c(=O)n2cc(F)c(N3CC[C@H](N)C3)c(C)c12` (stereo not given in full): the MIC with Streptococcus pyogenes was 50 µg/mL (≈ 138 µM); in the test on Pseudomonas aeruginosa, 50 µg/mL (≈ 138 µM); against Staphylococcus aureus [1] it was 6.2 µg/mL (≈ 17.2 µM); in the test with Enterococcus faecium, 12.5 µg/mL (≈ 34.6 µM); in the test on Staphylococcus aureus [2] it was greater than 100 µg/mL; in the test on Escherichia coli it was 1.56 µg/mL (≈ 4.32 µM).

For `Cc1c(N2CC[C@H](N)C2)c(F)cn2c(=O)c(C(=O)O)cc(C3CCCC3)c12`, the minimal inhibitory concentration (MIC) against Streptococcus pyogenes was 12.5 µg/mL (≈ 33.5 µM); with Pseudomonas aeruginosa, 25 µg/mL (≈ 66.9 µM); in the test with Staphylococcus aureus [1], 3.1 µg/mL (≈ 8.3 µM); against Enterococcus faecium, 12.5 µg/mL (≈ 33.5 µM); in the test on Staphylococcus aureus [2], 50 µg/mL (≈ 134 µM); in the test on Escherichia coli, 0.78 µg/mL (≈ 2.09 µM).

In the case of `C=CCc1cc(C(=O)O)c(=O)n2cc(F)c(N3CC[C@H](N)C3)c(C)c12`, the MIC is 1.56 µg/mL (≈ 4.52 µM) in the test with Streptococcus pyogenes; 3.1 µg/mL (≈ 8.98 µM) against Pseudomonas aeruginosa; 0.78 µg/mL (≈ 2.26 µM) with Staphylococcus aureus [1]; 1.56 µg/mL (≈ 4.52 µM) in the test with Enterococcus faecium; greater than 100 µg/mL with Staphylococcus aureus [2]; 1.56 µg/mL (≈ 4.52 µM) with Escherichia coli.

As to `Cc1c(N2CC[C@H](N)C2)c(F)cn2c(=O)c(C(=O)O)cc(C(C)C)c12`, the MIC came to 0.2 µg/mL (≈ 0.576 µM) in the test with Streptococcus pyogenes; 1.56 µg/mL (≈ 4.49 µM) against Pseudomonas aeruginosa; 0.1 µg/mL (≈ 0.288 µM) with Staphylococcus aureus [1]; 0.2 µg/mL (≈ 0.576 µM) in the test with Enterococcus faecium; 6.2 µg/mL (≈ 17.8 µM) with Staphylococcus aureus [2]; 0.39 µg/mL (≈ 1.12 µM) in the test on Escherichia coli.

With `Cc1c(N2CC[C@H](N)C2)c(F)cn2c(=O)c(C(=O)O)ccc12`, the MIC against Streptococcus pyogenes is 12.5 µg/mL (≈ 40.9 µM); against Pseudomonas aeruginosa, 6.2 µg/mL (≈ 20.3 µM); with Staphylococcus aureus [1], 3.1 µg/mL (≈ 10.2 µM); with Enterococcus faecium, 25 µg/mL (≈ 81.9 µM); against Staphylococcus aureus [2], greater than 100 µg/mL; in the test with Escherichia coli, 0.39 µg/mL (≈ 1.28 µM).

Turning to `Cc1c(N2CC[C@H](N)C2)c(F)cn2c(=O)c(C(=O)O)cc(C3CC3)c12` [ABT-719], the MIC against Streptococcus pyogenes is 0.02 µg/mL (≈ 0.0579 µM); against Pseudomonas aeruginosa it was 0.05 µg/mL (≈ 0.145 µM); against Staphylococcus aureus [1], 0.01 µg/mL (≈ 0.029 µM); against Enterococcus faecium, 0.02 µg/mL (≈ 0.0579 µM); against Staphylococcus aureus [2], 0.78 µg/mL (≈ 2.26 µM); with Escherichia coli it was 0.01 µg/mL (≈ 0.029 µM).

The MIC is the lowest concentration found to suppress growth.
